Entries after “also recorded” stand apart in the source; their conditions may differ. Where two headings read alike, the source gives them in different places.
Assays:
[1] = Plasma pharmacokinetics of MASM in rats, non-compartmental analysis; type: in vivo, Sprague-Dawley rats; conditions: rat
Method: UHPLC analysis was performed using a Thermo Accela AS system, employing an ACQUITY UPLC®BEH C18 (Waters Corporation, Wexfords, Ireland) (1.7 µm, 2.1 × 100 mm) column and a binary solvent system consisting of water containing 0.1% formic acid as mobile phase A and acetonitrile as mobile phase B. For pharmacokinetic evaluation, the gradient elution was set as follows: 97% A from 0 to 2 min, 97–70% A from 2 to 3 min, 70–20% A from 3 to 3.5 min, 20% A from 3.5 to 3.6 min, 20–97% A from 3.6 to 3.7 min, and 97% A from 3.7 to 5 min. For the metabolic test, the gradient elution in full scan mode was set as follows: 97% A from 0 to 2 min, 97–70% A from 2 to 4 min, 70–20% A from 4 to 6 min, 20% A from 6 to 7 min, 20–97% A from 7 to 8 min, and 97% A from 8 to 10 min. The flow rate was 0.2 mL/min, with a temperature of 40 °C maintained and an injection volume of 5 μL. The QQQ-MS/MS analysis was conducted using a Thermo TSQ QUANTUM ACCESS MAX system equipped with an electrospray ionization (ESI) source. The spray voltages were set at 4.0 kV and 2.5 kV for positive and negative ion modes, respectively; capillary and vaporizer temperatures were 320 °C and 350 °C, respectively; sheath and aux gas pressures were 35 and 10 psi, respectively.
A precisely measured MASM sample weighing 400 mg was dissolved in normal saline to create aqueous solutions with concentrations of 8.0, 6.0, and 1.5 mg/mL for intraperitoneal, oral, and intravenous administrations at doses of 80 mg/kg, 60 mg/kg, and 15 mg/kg, respectively.
Seventy Sprague-Dawley rats were fasted overnight before dosing, with free access to water. Subsequently, the rats were randomly and equally divided into 7 groups: the control groups received 3 different routes of administration: intravenous, intraperitoneal, and intragastric (NS, saline 1 mL/100 g); MASM intraperitoneal group (A, i.p. 80 mg/kg), MASM intragastrical group (B, i.g. 60 mg/kg), MASM intravenous group (C, i.v. 15 mg/kg), and DMASM intragastrical group (D, i.g. 60 mg/kg). It is important to note that the recommended clinical dose of matrine injection is 0.15 g, which is equivalent to a dosage of 15 mg/kg in rats. MASM was administered via tail vein injection at a dosage of 1 mL/100 g for intravenous dosing, while for intraperitoneal dosing, MASM was injected at the lower-right side of the abdomen of rats. Blood samples (approximately 0.3 mL) were collected from the eye socket at specific time intervals (0.083, 0.167, 0.25, 0.5, 1, 1.5, 2, 4, 6, 9, 12, and 24 h) after administration for each group. These samples were then placed in centrifuge tubes containing heparin sodium, subjected to centrifugation at 4000 rpm for 15 min, and the resulting supernatant was collected and stored at −80 °C until further analysis. During the analysis of the plasma sample, protein precipitation was carried out using a plasma-to-acetonitrile ratio of 1:3, and 5μL of the resulting supernatant was injected. The developed UHPLC-QQQ-MS/MS analysis method underwent a series of validations, and the peak area of the plasma sample was obtained employing the Xcalibur 2.2 data-processing system. The concentrations of MASM in plasma were then determined using linear regression equations. Subsequently, the in vivo pharmacokinetic parameters were calculated using the non-compartment model in DAS 3.0 software. Blood concentration–time curves were generated using Prism 8.0 (GraphPad Software Inc., San Diego, CA, USA).

[2] = Acute toxicity of MASM in mice via intravenous administration; type: in vivo; conditions: ICR, mouse, in vivo, iv, mice, intravenous
Method: (§1) All mice were administered MASM intravenously. The body weight of each mouse was measured on days 7 and 14. On the 14th day, all mice were euthanized, and the heart, liver, spleen, lung, and kidney were collected and weighed immediately. Serum was collected from the eyeballs for further biochemical analysis, and a small portion of each tissue and organ was fixed in 4% […] solution for histopathological examination. Bar graphs were generated applying Prism 8.0 (GraphPad Software Inc., San Diego, CA, USA), and HE staining samples were captured using the Leica image system.

[3] = system: ICR mice; test: as above; type: in vivo
Method: as §1

[4] = Sprague-Dawley, plasma, iv, i.v. 15 mg/kg, n = 6, mean ± SD
[5] = i.g. 60 mg/kg, n = 6, mean ± SD
[6] = i.p. 80 mg/kg, n = 6, mean ± SD

Work on `CNC1CC(=S)N2CC3CCCN4CCCC(C34)C2C1` [MASM, (6aS, 10S, 11aR, 11bR, 11cS)-10-methylaminododecahydro-3a, 7a-diaza-benzo (de) anthracene-8-thione] yielded a bioavailability ([1]; Sprague-Dawley, plasma, intraperitoneal, i.p. 80 mg/kg vs i.v. 15 mg/kg, n = 6, mean ± SD, read-out: F(%) bioavailability) of 54 ± 19.4%, a Cmax ([1]; Sprague-Dawley, plasma, ip, i.p. 80 mg/kg, n = 6, mean ± SD) of 2210 ± 930 ng/mL and a half-life ([1]; Sprague-Dawley, plasma, ip, i.p. 80 mg/kg, n = 6, mean ± SD, read-out: t 1/2 (elimination half-life) (converted)) of 9.97 ± 3.95 h. It also gave a Cmax [1, 4] of 780 ± 540 ng/mL, a clearance [1, 4] of 71.7 mL/min/kg and a Vd ([1]; Sprague-Dawley, plasma, iv, i.v. 15 mg/kg, n = 6, mean ± SD, read-out: V d (apparent volume of distribution)) of 36.6 ± 17.8 L/kg. It also gave a half-life ([1]; Sprague-Dawley, plasma, iv, i.v. 15 mg/kg, n = 6, mean ± SD, read-out: t 1/2 (elimination half-life) (converted)) of 10.5 ± 8.84 h, a bioavailability ([1]; Sprague-Dawley, plasma, oral, i.g. 60 mg/kg vs i.v. 15 mg/kg, n = 6, mean ± SD, read-out: F(%) absolute intragastrical bioavailability) of 44.5 ± 12.3% and a half-life ([1]; Sprague-Dawley, plasma, other: intravenous, intravenous, intraperitoneal or intragastric, read-out: t1/2 regardless of the route of administration (converted)) of about 10 h. For the same molecule, the Cmax ([1]; Sprague-Dawley, plasma, po, i.g. 60 mg/kg, n = 6, mean ± SD) was 1380 ± 570 ng/mL, the half-life ([1]; Sprague-Dawley, plasma, po, i.g. 60 mg/kg, n = 6, mean ± SD, read-out: t 1/2 (elimination half-life) (converted)) was 10.2 ± 4.95 h and the Tmax ([1]; Sprague-Dawley, plasma, ip, 80 mg/kg, i.p. 80 mg/kg, n = 6, mean ± SD) was 0.21 ± 0.04 h. The AUC(0-t) ([1]; Sprague-Dawley, plasma, ip, 80 mg/kg, i.p. 80 mg/kg, n = 6, mean ± SD, read-out: AUC(0–24)) was 15600 ± 5610 ng·h/mL, the AUC(0-t) ([1]; Sprague-Dawley, plasma, ip, 80 mg/kg, i.p. 80 mg/kg, n = 6, mean ± SD, read-out: AUC(0–t)) was 12400 ± 5320 ng·h/mL and the Tmax ([1]; Sprague-Dawley, plasma, iv, 15 mg/kg, i.v. 15 mg/kg, n = 6, mean ± SD) was 0.17 ± 0.17 h. It also gave an AUC(0-t) ([1]; Sprague-Dawley, plasma, iv, 15 mg/kg, i.v. 15 mg/kg, n = 6, mean ± SD, read-out: AUC(0–24)) of 5410 ± 3220 ng·h/mL, an AUC(0-t) ([1]; Sprague-Dawley, plasma, iv, 15 mg/kg, i.v. 15 mg/kg, n = 6, mean ± SD, read-out: AUC(0–t)) of 4280 ± 2400 ng·h/mL and a Tmax ([1]; Sprague-Dawley, plasma, po, 60 mg/kg, i.g. 60 mg/kg, n = 6, mean ± SD) of 1.3 h. For the same molecule, the AUC(0-t) ([1]; Sprague-Dawley, plasma, po, 60 mg/kg, i.g. 60 mg/kg, n = 6, mean ± SD, read-out: AUC(0–24)) was 13700 ± 7550 ng·h/mL, the AUC(0-t) ([1]; Sprague-Dawley, plasma, po, 60 mg/kg, i.g. 60 mg/kg, n = 6, mean ± SD, read-out: AUC(0–t)) was 10900 ± 4780 ng·h/mL and the CL [1, 5] was 93.3 ± 49 mL/min/kg. For the same molecule, the “V d (apparent volume of distribution)” value [1, 5] was 69.43 ± 22.58 L/kg, the CL [1, 6] was 95.5 ± 33.8 mL/min/kg and the “V d (apparent volume of distribution)” value [1, 6] was 84.74 ± 57.17 L/kg. The LD50 at 14 day ([2]; 14-day observation, read-out: LD50) was 94.2 mg/kg, the LD50 at 14 day ([2]; read-out: LD50, 95% confidence interval) was 70.8 to 129 mg/kg and the “viscera indices (visceral weight to body weight) of heart, liver, spleen, lung, kidney” value ([3]; day 14, vs control group, all dosages) was “no significant alterations; also recorded: remained unchanged”. The “heart histopathology (HE staining)” value ([3]; high (240 mg/kg) and medium-high (144 mg/kg) dose groups) was “noticeable increase in myocardial fiber density”, the “spleen histopathology (HE staining)” value ([3]; high and medium-high dose groups vs control) was “slight increase in the count of splenic sinusoids and lymph nodes” and the “liver histopathology (HE staining)” value ([3]; high and medium-high dose groups, accompanied by portal area bleeding) was “noteworthy escalation in the number of hepatocytes”. For the same molecule, the “kidney histopathology (HE staining)” value ([3]; high-dose group (240 mg/kg)) was “proliferation and dense arrangement, accompanied by evident bleeding”, the “lung histopathology (HE staining), alveolar cavity” value ([3]; high-dose group (240 mg/kg)) was “widened, accompanied by hemorrhaging” and the “lung histopathology (HE staining), alveolar wall” value ([3]; medium-dose to low-dose groups) was “slight thinning”. The “kidney histopathology, renal interstitial blood vessels” value ([3]; medium-high and medium-dose groups) was “proliferation and dilation”, the “ALP activity in plasma vs control” value ([3]; mice, day 14, p > 0.05) was “no statistically significant differences” and the “ALT activity in plasma vs control” value ([3]; mice, day 14, p > 0.05) was “no statistically significant differences”. The “AST activity in plasma vs control” value ([3]; mice, day 14, p > 0.05) was “no statistically significant differences”, the “albumin (ALB) level in plasma vs control” value ([3]; mice, day 14, p > 0.05) was “no statistically significant differences” and the “creatinine (CREA) level in plasma vs control” value ([3]; mice, day 14, p > 0.05) was “statistically indistinguishable from those of the control group; also recorded: no statistically significant differences”. The “total protein (TP) level in plasma vs control” value ([3]; mice, day 14, p > 0.05) was “no statistically significant differences”, the “urea (UREA) level in plasma vs control” value ([3]; mice, day 14, p > 0.05) was “statistically indistinguishable from those of the control group; also recorded: no statistically significant differences” and the symptoms upon death ([3]; mice, intravenous) was “convulsions, increased salivary secretion, urination, and defecation”. The “overall histopathological changes of primary organs” value ([3]; particularly low (31.1 mg/kg), medium-low (51.84 mg/kg), medium (86.4 mg/kg) dose groups) was “no significant alterations; also recorded: no substantial pathological alterations; also recorded: did not reveal any significant pathological changes”.

Source: article PMC10820135, “Pharmacokinetic, Tissue Distribution, Metabolite, and Toxicity Evaluation of the Matrine Derivative, (6aS, 10S, 11aR, 11bR, 11cS)-10-Methylaminododecahydro-3a, 7a-Diaza-benzo (de) Anthracene-8-thione” (Molecules, 2024)
